Active and inactive are the calls of the source.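 How the source made its calls: active means a tumor-causing dose value with its tumor site reported for any sex and species group of a rodent or other animal cancer study; inconclusive means only studies judged inadequate by the national testing program; inactive means tested in at least one study, none positive.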 Numbered stars: 1 amine (or outer) side, 2 acyl side, 3 side chain; on linkers, the order of the positions; unused ones are H or OH. Bridge positions count the residues as written; N and C are the ends. Square brackets hold non-standard residues; d marks the D form. Peptide text beside a SMILES is read from it. I, II: the chains in the order shown. Actinocin(1to9) = Cc1c2oc3c(C)ccc(C(=O)[*:2])c3nc-2c(C(=O)[*:1])c(N)c1=O; d(aIle) = CC[C@H](C)[C@@H](N)C(=O)O; NMeV = CN[C@H](C(=O)O)C(C)C; Sar = CNCC(=O)O

The series can be described thus: DSSTox (CPDBAS) Carcinogenic Potency Database Summary SingleCellCall Results. The settings on record: animal chronic carcinogenicity bioassays, CPDB summary call. From the text:
The Carcinogenic Potency Database (CPDB) is a unique and widely used international resource of the results of over 6500 chronic, long-term animal cancer tests on over 1500 chemical substances. The CPDB provides easy access to the bioassay literature, with qualitative and quantitative analyses of both positive and negative experiments that have been published over the past 50 years in the general literature and by the National Cancer Institute/National Toxicology Program. The CPDB standardizes the diverse literature of cancer bioassays that vary widely in protocol, histopathological examination and nomenclature, and in the published author's choices of what information to provide in their papers. Results are reported in the CPDB for tests in rats, mice, hamsters, dogs, and nonhuman primates, and are based on the most positive result among all experiments for each sex-species. The DSSTox CPDBAS (all species) file incorporates data from the CPDB Summary Tables for the full list of over 1500 chemical substances tested in at least one species. A summary SingleCellCall, based on experimental bioassay results of one or more species, is provided for the entire DSSTox CPDBAS file (see Source URL).
An assignment of categorical carcinogenic activity based on minimal evidence for or against activity. […] Associated TD50 values and tumor site details for the relevant species/sex experiment supporting this overall CPDBAS SingleSiteCall are provided in the full CPDBAS DSSTox file (see Comment) and the corresponding CPDBAS Species Bioassay in PubChem.
Take `CNC(=O)O/N=C/C(C)(C)SC`: the outcome was inactive.
Turning to `S=C=NCCc1ccccc1`, the outcome was “inactive; active”.
Regarding `C/C=C(\C)C(=O)O[C@@H]1CCN2CC=C(COC(=O)C(O)(C(C)C)C(C)O)[C@H]12` (stereo partly drawn), the outcome was active.
As to `c1ccc(C2CO2)cc1` (stereo not drawn), the outcome was active.
On to `COc1cc2c(c3oc4cccc(O)c4c(=O)c13)C1C=COC1O2` (stereo not drawn), for which the outcome was “active; inactive”.
On to `ClCC(Cl)Cl`, for which the result was active.
`O=[N+]([O-])c1ccc(-c2nc(NCCO)c3ccccc3n2)s1`: the outcome was active.
For `CC(F)(Cl)Cl`, the outcome was active.
The value for `Cc1cccc(OCC(O)CNC(C)(C)C)c1C` (stereo not drawn) was “inactive”.
Regarding `C=CC(=O)c1ccc2c(c1)OCO2`, the result was inactive.
For the compound `Nc1ccc(NCCO)c([N+](=O)[O-])c1`, the outcome was inactive.
Regarding `NC(=O)CCCCC(N)=O`, the outcome was “inactive; active”.
Take `CCNC(=O)Nc1ncc([N+](=O)[O-])s1`: the outcome was active.
Consider `O=C(O)CC(O)(CC(=O)O)C(=O)O`, for which the result was inactive.
Take `O=c1[nH]nc(-c2ccc([N+](=O)[O-])o2)o1`: the outcome is “active; inactive”.
The entry for `Cc1cc(O)cc(C)c1N(C)C` is “inactive; active”; for `O=S1(=O)CC=CC1` it is “inactive”; for `CC12CCC(CC1)C(C)(C)O2` it is “inactive”.
As to `CCN=c1cc2oc3cc(NCC)c(C)cc3c(-c3ccccc3C(=O)OCC)c-2cc1C`, the outcome is “inactive; active”.
`C=CCN(N=O)C(N)=O`: the result was active.
The entry for `CC(=O)Nc1nnc(-c2ccc([N+](=O)[O-])o2)s1` is “active”; for `CCCC[C@H](C)[C@@H](OC(=O)C[C@H](CC(=O)O)C(=O)O)[C@@H](C[C@H](C)C[C@@H](O)CCCC[C@@H](O)C[C@H](O)[C@H](C)N)OC(=O)C[C@H](CC(=O)O)C(=O)O` it is “active; inactive”.
Regarding `C=CBr`, the outcome was active.
For the compound `Cc1cccc(Nc2cc(Cl)nc(SCC(=O)NCCO)n2)c1C`, the outcome is “active; inactive”.
Take `CN(C)N`: the result was active.
`N=C1C=CC(=C(c2ccc(N)cc2)c2ccc(N)cc2)C=C1`: the outcome was active.
For `[Cl-].[Cl-].[Sn+2]`, the outcome was inactive.
The entry for `CCCc1ccc2c(c1)OCO2` is “active; inactive”.
On to `COc1ccc([N+](=O)[O-])cc1N=Nc1c(O)c(C(=O)Nc2cccc([N+](=O)[O-])c2)cc2ccccc12`, for which the outcome was “inactive; active”.
As for `N=c1ccn2c(n1)O[C@H]1[C@H](O)[C@@H](CO)O[C@H]12`, the result was inactive.
Take `Cc1cc(=O)[nH]c(=S)[nH]1`: the outcome was active.
For `O=Cc1ccco1`, the outcome was “active; inactive”.
For the compound `CCBr`, the result was active.
Take `CC(=O)OCc1ccccc1`: the outcome is “active; inactive”.
The value for `O=C(O)Cc1cccc2ccccc12` was “inactive; active”; that for `CCCCN(N=O)C(N)=O` was “active”.
With `O=NN(CCCl)C(=O)N[C@@H]1[C@@H](O)[C@H](O)[C@@H](CO)O[C@@H]1O`, the outcome was active.
The entry for `CC(=O)Nc1cccc2c1Cc1ccccc1-2` is “inactive; active”; for `O=NN1CCCN(N=O)CC1` it is “active”; for `Cc1cccc(N=Nc2ccc(N(C)C)cc2)c1` it is “active”.
As to `CN(C)NC(=O)CCC(=O)O`, the result was active.
The entry for `COc1cc(/C=C/C(=O)O[C@H]2CC[C@]34C[C@]35CC[C@]3(C)[C@@H]([C@H](C)CCC=C(C)C)CC[C@@]3(C)[C@@H]5CC[C@H]4C2(C)C)ccc1O` is “inactive”; for `CCCCCCCCCCCCN=C(N)N` it is “inactive”; for `[O]=[Cr](=[O])([OH])[O][Cr](=[O])(=[O])[OH]` it is “active”.
The entry for `CC(=O)CN(CC(O)CO)N=O` (stereo not drawn) is “active”; for `COC(=O)C(c1ccccc1)C1CCCCN1` (stereo not drawn) it is “active”; for `O=NN1CCCCC1C(=O)O` (stereo not drawn) it is “inactive”.
For `Nc1nc(-c2ccc([N+](=O)[O-])o2)cs1`, the result was active.
As for `O=[N+]([O-])c1cc([N+](=O)[O-])c(Cl)c(Cl)c1Cl`, the outcome was inactive.
In the case of `O=NN1CCCCCCC1`, the outcome was active.
With `CN(C)N=Nc1ccccc1`, the outcome was active.
Take `O=C1Nc2ccc(Cl)cc2C(c2ccccc2)=NC1O` (stereo not drawn): the result was active.
For the compound `CCn1cc(C(=O)O)c(=O)c2cc3c(cc21)OCO3`, the outcome was active.
Take `O=NN1CCCCC1c1cccnc1` (stereo not drawn): the outcome was active.
As for `CCOc1nc2cccc(C(=O)OC(C)OC(=O)OC3CCCCC3)c2n1Cc1ccc(-c2ccccc2-c2nn[nH]n2)cc1` (stereo not drawn), the outcome was inactive.
Regarding `C=CC`, the outcome was inactive.
For `CCC1(c2ccccc2)C(=O)NC(=O)NC1=O`, the outcome was active.
As for `O.O=S(=O)([O-])[O-].[Mn+2]`, the outcome was inactive.
For the compound `C[C@@H]1Cc2c(Cl)cc(C(=O)N[C@@H](Cc3ccccc3)C(=O)O)c(O)c2C(=O)O1`, the outcome was active.
In the case of `C/C=C/c1ccc2c(c1)OCO2`, the result was inactive.
Turning to `Nc1nnc(-c2ccc([N+](=O)[O-])o2)s1`, the outcome was active.
The value for `CCOc1ccc(NC(C)=O)cc1[N+](=O)[O-]` was “active”; that for `NC(Cc1ccc(O)c(O)c1)C(=O)O` (stereo not drawn) was “inactive”.
For `O=NN1CCCCC1`, the outcome was “active; inactive”.
For the compound `CC(=O)O[C@]1(C(C)=O)CC[C@H]2[C@@H]3C=C(Cl)C4=CC(=O)[C@@H]5C[C@@H]5[C@]4(C)[C@H]3CC[C@@]21C`, the outcome was “active; inactive”.
For the compound `CCN(N=O)C(N)=O`, the outcome is “active; inactive”.
Turning to `NC(CCC(=O)O)C(=O)O` (stereo not drawn), the outcome is “inactive; active”.
With `Nc1c(Br)cc(Br)c2c1C(=O)c1ccccc1C2=O`, the outcome was active.
The entry for `NC(=S)NNS(=O)(=O)c1ccccc1` is “inactive”; for `C[C@]12C=CC(=O)C=C1CC[C@@H]1[C@@H]2C(=O)C[C@@]2(C)[C@H]1CC[C@]2(O)C(=O)CO` it is “inactive”.
Regarding `O=NN1CCCN(N=O)C1`, the result was active.
As for `NC(N)=S`, the outcome was “active; inactive”.
As for `CC(C)Oc1ccccc1OC(=O)N(C)N=O`, the outcome was active.
`CCC(=O)C(CC(C)N(C)C)(c1ccccc1)c1ccccc1` (stereo not drawn): the result was inactive.
In the case of `CC(O)CN(CC(O)CO)N=O` (stereo not drawn), the result was active.
Turning to `CN1C(=O)C(O)N=C(c2ccccc2)c2cc(Cl)ccc21` (stereo not drawn), the outcome was inactive.
The entry for `CC(COc1ccc(C(C)(C)C)cc1)OS(=O)OCCCl` (stereo not drawn) is “active”; for `O=NN1CCC(O)C1` (stereo not drawn) it is “active”.
Turning to `BrCCBr`, the outcome was “active; inactive”.
The value for `c1ccc(Nc2ccc(Nc3ccccc3)cc2)cc1` was “inactive”; that for `C=CCc1ccc(OC)cc1` was “active”; that for `COc1ccc(C(Cl)=C(c2ccc(OC)cc2)c2ccc(OC)cc2)cc1` was “inactive”.
As to `Clc1ccccc1`, the outcome was “active; inactive”.
Regarding `CC(=O)Nc1ccc(CC(=O)O)cc1`, the outcome was inactive.
`Clc1ccc(C(c2ccc(Cl)cc2)C(Cl)Cl)cc1`: the result was active.
For the compound `COc1ccccc1N`, the outcome was active.
As to `CC[C@H](C)[C@H]1NC(=O)[C@@H](NC(=O)c2c3nc4c(C(=O)N[C@@H]5C(=O)N[C@H](C(C)C)C(=O)N6CCC[C@H]6C(=O)N(C)CC(=O)N(C)[C@@H](C(C)C)C(=O)O[C@@H]5C)ccc(C)c4oc-3c(C)c(=O)c2N)[C@@H](C)OC(=O)[C@H](C(C)C)N(C)C(=O)CN(C)C(=O)[C@@H]2CCCN2C1=O` (I: T[d(aIle)]P[Sar][NMeV] / II: T[dV]P[Sar][NMeV]; ester I:1-I:C, II:1-II:C; linker I:N-II:N via Actinocin(1to9)), the result was inactive.
As for `Nc1cc(Cl)c(N)c(Cl)c1`, the outcome was “active; inactive”.
The value for `CCOP(=O)=O.CCOP(=O)=O.CCOP(=O)=O.[Al+3]` was “active; inactive”; that for `Cc1cc(N=Nc2c(O)ccc3ccccc23)c(S(=O)(=O)O)cc1Cl` was “active; inactive”.
Take `COC(=O)[C@H](Cc1ccccc1)NC(=O)[C@@H](N)CC(=O)O` (H-Asp-Phe-OMe): the result was inactive.
Consider `Cc1cccc(C)c1N`, for which the outcome is “inactive; active”.
Turning to `CCCCN(CC)C(=O)SCCC`, the result was inactive.
The entry for `CC1CN1P(=O)(N1CC1C)N1CC1C` (stereo not drawn) is “active”.
For `CCCN(N=O)C(=N)N[N+](=O)[O-]`, the outcome was active.
`C[C@]12CCC(=O)C=C1CC[C@@H]1[C@@H]2[C@@H](O)C[C@@]2(C)[C@H]1CC[C@]2(O)C(=O)CO`: the outcome was inactive.
For the compound `CC(C)=CCl`, the result was active.
With `OCl`, the result was inactive.

The record behind these values is PubChem BioAssay AID1189 (EPA DSSTox, 2008).
